Patent publication US20230146455A1, “TREATMENT OF INFLAMMATORY DISEASES WITH PEPTIDES AND PHARMACEUTICAL COMPOSITIONS” (Yuyu Pharma, Inc., priority 2020, published 2023)
Values joined by “and” are separate entries in the source; they are usually repeats but may differ in a detail not shown here. Equal entries are not always repeated. Where a SMILES comes first, the peptide text is derived from it. [ ]: non-standard residue; d: D form. Hyp = O=C(O)[C@@H]1C[C@@H](O)CN1

Experiments:
CCL3/MIP-1 alpha = assay: Example 9 Luminex, LPS hPBMCs: CCL3/MIP-1 alpha; format: cell-based, human
Experimental: (§1) Treatment Human PBMCs were pretreated with YY-101, YDE-011 and YDE-043 or reference compound; Xiidra® at various concentration (ranging from 1 nM to 100 uM) for 2 h before stimulation. An equal volume of 0.5% DMSO was used as a vehicle control. Then, the cells were treated with LPS at 5 ug/ml. The supernatants from treated cells were harvested at 24 h and placed in a 96 well for Luminex cytokine & chemokine profiling using a Luminex 200 multiplex assay (Luminex; R&D system, USA).
(§2) The main study arm with triplicate wells per group in a 24-well plate: • 1. Blank • 2. PBMC: 0.5% DMSO • 3. PBMC+LPS (5 ug/ml) • 4. PBMC+YY-101 100 uM • 5. PBMC+YY-101 10 uM • 6. PBMC+YY-101 1 uM • 7. PBMC+YY-101 0.1 uM • 8. PBMC+YY-101 0.01 uM • 9. PBMC+LPS (5 ug/ml)+Xiidra®100 uM • 10. PBMC+LPS (5 ug/ml)+Xiidra® 10 uM • 11. PBMC+LPS (5 ug/ml)+Xiidra® 1 uM • 12. PBMC+LPS (5 ug/ml)+Xiidra®0.1 uM • 13. PBMC+LPS (5 ug/ml)+Xiidra®0.01 uM • 14. PBMC+LPS (5 ug/ml)+Xiidra®0.001 uM • 15. PBMC+LPS (5 ug/ml)+YY-101 100 uM • 16. PBMC+LPS (5 ug/ml)+YY-101 10 uM • 17. PBMC+LPS (5 ug/ml)+YY-101 1 uM • 18. PBMC+LPS (5 ug/ml)+YY-101 0.1 uM • 19. PBMC+LPS (5 ug/ml)+YY-101 0.01 uM • 20. PBMC+LPS (5 ug/ml)+YY-101 0.001 uM • 21. PBMC+LPS (5 ug/ml)+YDE-011 100 uM • 22. PBMC+LPS (5 ug/ml)+YDE-011 10 uM • 23. PBMC+LPS (5 ug/ml)+YDE-011 1 uM • 24. PBMC+LPS (5 ug/ml)+YDE-011 0.1 uM • 25. PBMC+LPS (5 ug/ml)+YDE-011 0.01 uM • 26. PBMC+LPS (5 ug/ml)+YDE-011 0.001 uM • 27. PBMC+LPS (5 ug/ml)+YDE-043 100 uM • 28. PBMC+LPS (5 ug/ml)+YDE-043 10 uM • 29. PBMC+LPS (5 ug/ml)+YDE-043 1 uM • 30. PBMC+LPS (5 ug/ml)+YDE-043 0.1 uM • 31. PBMC+LPS (5 ug/ml)+YDE-043 0.01 uM • 32. PBMC+LPS (5 ug/ml)+YDE-043 0.001 uM
(§3) Multiplex assay was used to measure 30 cytokines and chemokines. The 1:2, 1:10 and 1:200 diluted cell supernatant and serial dilution of the standard were dispensed into a 96 well plate at 50 ul/well. Then, the pre-mixed cocktail of antibody-coated magnetic beads was dispensed at 50 ul/well and incubated at room temperature for 2 h in a horizontal orbital microplate shaker at 800±500 rpm. The beads were washed using a magnetic device to prevent loss. The biotin-antibody was dispensed in 50 ul of each well and incubated at room temperature for 1 h in a shaker at 800±500 rpm. After washing, streptavidin-PE was added at 50 ul/well and incubated at room temperature for 30 min in a shaker under the same conditions. Finally, after washing, wash buffer (100 ul/well) was added to the plate and incubated in a shaker for 2 min. The Luminex™ 200 setting were set according to the manufacturer's protocol. The data was calculated with a standard five-parameter logistic nonlinear regression analysis of the data (xPonent software 4.2, USA). The levels of cytokine/chemokine are normalized to the live cell counts (1×10^5 cells/mL) and presented as concentrations per mL (pg/mL or ng/mL).

TIMP-1 = assay: Example 9 Luminex, LPS hPBMCs: TIMP-1; format: cell-based, human; details: PBMC + LPS(5 ug/ml)
Experimental: as §1, §2, §3

[1] = PBMC + LPS(5 ug/ml) + test article 0.001 uM, Mean
[2] = PBMC + LPS(5 ug/ml) + test article 0.001 uM, individual replicates
[3] = PBMC + LPS(5 ug/ml) + test article 0.01 uM, Mean
[4] = PBMC + LPS(5 ug/ml) + test article 0.01 uM, individual replicates
[5] = PBMC + LPS(5 ug/ml) + test article 0.1 uM, Mean
[6] = PBMC + LPS(5 ug/ml) + test article 0.1 uM, individual replicates
[7] = PBMC + LPS(5 ug/ml) + test article 1 uM, Mean
[8] = PBMC + LPS(5 ug/ml) + test article 1 uM, individual replicates
[9] = PBMC + LPS(5 ug/ml) + test article 10 uM, Mean
[10] = PBMC + LPS(5 ug/ml) + test article 10 uM, individual replicates
[11] = PBMC + LPS(5 ug/ml) + test article 100 uM, Mean
[12] = PBMC + LPS(5 ug/ml) + test article 100 uM, individual replicates
[13] = test article 0.001 uM, single replicates
[14] = test article 0.01 uM, single replicates
[15] = test article 0.1 uM, single replicates
[16] = test article 1 uM, single replicates
[17] = test article 10 uM, single replicates
[18] = test article 100 uM, single replicates

CC(C)C[C@H](NC(=O)CNC(=O)[C@H](CC(C)C)NC(=O)[C@H](CCC(N)=O)NC(=O)CNC(=O)[C@@H]1C[C@@H](O)CN1)C(=O)N[C@@H](C)C(=O)NCC(=O)N1CCC[C@H]1C(=O)N[C@@H](CCCCN)C(=O)O [YDE-011] (H-[Hyp]GQLGLAGPK-OH)
Concentration (CCL3/MIP-1 alpha; [1]): 7478.7 pg/mL
conc/live cell (CCL3/MIP-1 alpha; [1]): 1414.4 pg/10^5
Concentration (CCL3/MIP-1 alpha; [2]): 7525.9 pg/mL and 7321.9 pg/mL and 7588.4 pg/mL
conc/live cell (CCL3/MIP-1 alpha; [2]): 1672.4 pg/10^5 and 1262.4 pg/10^5 and 1308.3 pg/10^5
Concentration (CCL3/MIP-1 alpha; [3]): 7584.1 pg/mL
conc/live cell (CCL3/MIP-1 alpha; [3]): 1304.0 pg/10^5
Concentration (CCL3/MIP-1 alpha; [4]): 7600.8 pg/mL and 7525.9 pg/mL and 7625.5 pg/mL
conc/live cell (CCL3/MIP-1 alpha; [4]): 1225.9 pg/10^5 and 1475.7 pg/10^5 and 1210.4 pg/10^5
Concentration (CCL3/MIP-1 alpha; [5]): 7103.9 pg/mL
conc/live cell (CCL3/MIP-1 alpha; [5]): 1250.7 pg/10^5
Concentration (CCL3/MIP-1 alpha; [6]): 6974.8 pg/mL and 7334.8 pg/mL and 7002.2 pg/mL
conc/live cell (CCL3/MIP-1 alpha; [6]): 1056.8 pg/10^5 and 1467.0 pg/10^5 and 1228.5 pg/10^5
Concentration (CCL3/MIP-1 alpha; [7]): 7537.7 pg/mL
conc/live cell (CCL3/MIP-1 alpha; [7]): 1505.0 pg/10^5
Concentration (CCL3/MIP-1 alpha; [8]): 7399.2 pg/mL and 7613.2 pg/mL and 7600.8 pg/mL
conc/live cell (CCL3/MIP-1 alpha; [8]): 1345.3 pg/10^5 and 1586.1 pg/10^5 and 1583.5 pg/10^5
Concentration (CCL3/MIP-1 alpha; [9]): 7734.7 pg/mL
conc/live cell (CCL3/MIP-1 alpha; [9]): 1473.3 pg/10^5
Concentration (CCL3/MIP-1 alpha; [10]): 7962.5 pg/mL and 7373.5 pg/mL and 7868.0 pg/mL
conc/live cell (CCL3/MIP-1 alpha; [10]): 1474.5 pg/10^5 and 1271.3 pg/10^5 and 1674.0 pg/10^5
Concentration (CCL3/MIP-1 alpha; [11]): 7968.8 pg/mL
conc/live cell (CCL3/MIP-1 alpha; [11]): 1313.3 pg/10^5
Concentration (CCL3/MIP-1 alpha; [12]): 8238.4 pg/mL and 8067.3 pg/mL and 7600.8 pg/mL
conc/live cell (CCL3/MIP-1 alpha; [12]): 1350.6 pg/10^5 and 1322.5 pg/10^5 and 1266.8 pg/10^5
TIMP-1 Concentration (TIMP-1; test article 0.001 uM, Mean): 1792.7 pg/mL
TIMP-1 MFI (TIMP-1; test article 0.001 uM, Mean): 946.7
TIMP-1 conc/live cell (TIMP-1; test article 0.001 uM, Mean): 339.5 pg/10^5
TIMP-1 Concentration (TIMP-1; [13]): 1831.6 pg/mL and 1659.9 pg/mL and 1886.6 pg/mL
TIMP-1 MFI (TIMP-1; [13]): 974.0 and 852.5 and 1013.5
TIMP-1 conc/live cell (TIMP-1; [13]): 407.0 pg/10^5 and 286.2 pg/10^5 and 325.3 pg/10^5
TIMP-1 Concentration (TIMP-1; test article 0.01 uM, Mean): 1879.9 pg/mL
TIMP-1 MFI (TIMP-1; test article 0.01 uM, Mean): 1009.2
TIMP-1 conc/live cell (TIMP-1; test article 0.01 uM, Mean): 325.5 pg/10^5
TIMP-1 Concentration (TIMP-1; [14]): 1811.3 pg/mL and 2050.0 pg/mL and 1778.3 pg/mL
TIMP-1 MFI (TIMP-1; [14]): 959.5 and 1132.0 and 936.0
TIMP-1 conc/live cell (TIMP-1; [14]): 292.1 pg/10^5 and 402.0 pg/10^5 and 282.3 pg/10^5
TIMP-1 Concentration (TIMP-1; test article 0.1 uM, Mean): 1831.1 pg/mL
TIMP-1 MFI (TIMP-1; test article 0.1 uM, Mean): 974.2
TIMP-1 conc/live cell (TIMP-1; test article 0.1 uM, Mean): 320.0 pg/10^5
TIMP-1 Concentration (TIMP-1; [15]): 1879.7 pg/mL and 1677.8 pg/mL and 1935.9 pg/mL
TIMP-1 MFI (TIMP-1; [15]): 1008.5 and 865.0 and 1049.0
TIMP-1 conc/live cell (TIMP-1; [15]): 284.8 pg/10^5 and 335.6 pg/10^5 and 339.6 pg/10^5
TIMP-1 Concentration (TIMP-1; test article 1 uM, Mean): 1791.4 pg/mL
TIMP-1 MFI (TIMP-1; test article 1 uM, Mean): 945.5
TIMP-1 conc/live cell (TIMP-1; test article 1 uM, Mean): 356.7 pg/10^5
TIMP-1 Concentration (TIMP-1; [16]): 1869.9 pg/mL and 1750.8 pg/mL and 1753.6 pg/mL
TIMP-1 MFI (TIMP-1; [16]): 1001.5 and 916.5 and 918.5
TIMP-1 conc/live cell (TIMP-1; [16]): 340.0 pg/10^5 and 364.7 pg/10^5 and 365.3 pg/10^5
TIMP-1 Concentration (TIMP-1; test article 10 uM, Mean): 1768.2 pg/mL
TIMP-1 MFI (TIMP-1; test article 10 uM, Mean): 929.0
TIMP-1 conc/live cell (TIMP-1; test article 10 uM, Mean): 335.3 pg/10^5
TIMP-1 Concentration (TIMP-1; [17]): 1820.4 pg/mL and 1794.4 pg/mL and 1689.9 pg/mL
TIMP-1 MFI (TIMP-1; [17]): 966.0 and 947.5 and 873.5
TIMP-1 conc/live cell (TIMP-1; [17]): 337.1 pg/10^5 and 309.4 pg/10^5 and 359.5 pg/10^5
TIMP-1 Concentration (TIMP-1; test article 100 uM, Mean): 2184.4 pg/mL
TIMP-1 MFI (TIMP-1; test article 100 uM, Mean): 1231.0
TIMP-1 conc/live cell (TIMP-1; test article 100 uM, Mean): 360.0 pg/10^5
TIMP-1 Concentration (TIMP-1; [18]): 2326.8 pg/mL and 2121.7 pg/mL and 2104.6 pg/mL
TIMP-1 MFI (TIMP-1; [18]): 1336.5 and 1184.5 and 1172.0
TIMP-1 conc/live cell (TIMP-1; [18]): 381.4 pg/10^5 and 347.8 pg/10^5 and 350.8 pg/10^5
